Molecules are shown by their SMILES.

Regarding `N#Cc1ncn2c1[C@@H]1CCN1C(=O)c1c-2cccc1C(F)(F)F`, the melting point (as a rule, the temperature of the solid-liquid transition) was 115 to 119 °C. `CS(=O)(=O)c1cc(C(=O)NC(=N)N)c(NCc2ccco2)cc1Cl`: the melting point is 96 to 102 °C. Compound `CCOC(=O)c1sc(Cl)nc1C(Cl)(Cl)Cl` showed a melting point of 42.5 to 43.5 °C. Compound `CC(C)(C)CN1C(=O)N(CC(=O)O)N=C(c2ccccc2Cl)c2cc(Cl)ccc21` showed a melting point of 181 to 183 °C. Regarding `O=C(O)c1ccc(NCCCCCCOc2ccccc2)cc1`, the melting point lay in the range of 168 to 170 °C. With `CON(C)C(=S)Nc1ccc(OCCc2ccccc2)c(Cl)c1` the figure was 116 to 117 °C; with `CN(C)C(=O)N(O)Cc1cc2ccccc2s1`, 145 to 147 °C. `COC(=O)c1ccc(CNC(=O)[C@@H]2Cc3ccccc3N2S(=O)(=O)c2ccc(I)cc2)cc1` showed a melting point of 80 to 85 °C.

Take `COc1c(NC(=O)c2ccc(C)c(-n3cc(C(=O)Cl)nn3)c2)cc(C(C)(C)C)cc1NS(C)(=O)=O`: the melting point lay in the range of 205 to 207 °C.

As for `Cc1oc(-c2ccccc2)nc1COc1cccc(COc2cncc(CO)c2)c1`, the melting point was in the range of 145 to 146 °C. For `CCOC(=O)c1cn(-c2ccc(OC)cc2F)c2cc(F)c(F)cc2c1=O`, the melting point lay in the range of 170 to 171 °C. The compound `O=c1c(-c2cccc(F)c2)coc2cc(O)c(O)cc12` gave a melting point of 277 °C.

Compound `O=C(NC1CCN(CCc2ccccc2F)C1)C12CC3CC(CC(C3)C1)C2` (stereo not drawn) returned a melting point of 106 to 108 °C. `CCN(c1cccc2cc(-c3ncc(COc4ccc(C(=O)OC)cc4)s3)[nH]c12)S(=O)(=O)c1cccs1` came in with a melting point of 191 °C. `CCc1cnc(CSc2cnc(N)s2)o1` registered a melting point of 119 to 120 °C. `COC(=O)C(Cc1ccccc1)Oc1ccc2cc(-c3cnc(Cc4ccccc4)o3)ccc2c1` (stereo not drawn) came in with a melting point of 88 to 90 °C.

With `CN(C)CCNC(=O)c1cccc(-c2ccc3c(c2)N(Cc2ccc(Cl)cc2Cl)CC3)c1`, the melting point fell in the range of 122 to 123 °C. Turning to `C#CC1(OC(=O)NCCCC)CCN(CCC=C(c2ccc(F)cc2)c2ccc(F)cc2)CC1`, the melting point was in the range of 83 to 84 °C. For the compound `O=C1CSc2nc(Nc3ccc(N4CCOCC4)cc3)ncc2N1`, the melting point fell in the range of 288 to 290 °C. On to `COc1ccc(-c2nc(NC(=N)N3CCN(C)CC3)sc2-c2ccc(OC)cc2)cc1`, for which the melting point lay within 161 to 162 °C. `CCSCC#Cc1cc(F)c2ncc(C(=O)NCc3ccc(Cl)cc3)c(O)c2c1` displayed a melting point of 232 to 233 °C. On to `COc1ccc(-c2cc(CO)nn2-c2ccc(S(N)(=O)=O)cc2)cc1I`, for which the melting point was 196 to 198 °C. The compound `COc1ccc(C(=O)Nc2c(Cl)cc(C=O)cc2Cl)cc1OC1CCCC1` had a melting point of 96 to 98 °C.

On to `CCc1n[nH]c2c1nc(-c1ccccc1)c1ccccc12`, for which the melting point was 250 to 251 °C. As for `COc1cccc(-c2nc(-c3ccccc3)c3ncc(-c4cccnc4)cc3n2)c1`, the melting point was 134 to 135 °C. Regarding `CCC1(C)OC(c2ccc(S(C)(=O)=O)cc2)=C(c2ccc(C(C)=O)cc2)C1=O` (stereo not drawn), the melting point lay within 147 to 148 °C. The compound `COC(=O)c1ccc(OC)nc1SCc1ccccc1` displayed a melting point of 67 to 71 °C.

Regarding `CC(C)(C)OC(=O)N[C@H](Cc1ccc(Cl)c(Cl)c1)C(=O)N1CCC[C@H]1C(=O)NC1CCc2n[nH]cc2C1` (stereo partly drawn), the melting point was in the range of 116 to 119 °C. Compound `OC(Cc1ccc(Cl)cc1)(Cn1ccnc1)c1ccc(-c2ccccc2)cc1` (stereo not drawn) displayed a melting point of 182 °C. Turning to `COC(=O)c1cc(F)ccc1Nc1ccnc2cc(Cl)ccc12`, the melting point came out at 180 °C. In turn, `O=C(O)Cc1ccc(Oc2ccc(C(F)(F)F)cn2)c(Cl)c1` displayed a melting point of 138 to 139 °C. `O=C1C(c2ccc3c(c2)OCO3)c2ccccc2N1Cc1ccc(Cl)cc1` (stereo not drawn) returned a melting point of 161 to 163 °C. In turn, `O=C(O)c1ccc2c(c1)S(=O)c1ccccc1C2=O` (stereo not drawn) had a melting point of 295 to 296 °C. Compound `CC12CCC(O)CC1=CCC1C2CCC2(C)C(n3cnc4ccccc43)=CCC12` (stereo not drawn) displayed a melting point of 189 to 190 °C. With `CN(C)c1ccc2cc(-c3ccn4ccnc4c3C#N)ccc2c1` the figure was 268 to 269 °C; with `NC(=O)COCCN1CCN(C(c2ccccc2)c2ccc(Cl)cc2)CC1` (single isomer, unassigned; (-)), 94.3 °C; with `Cc1ccc(N(CCN2CCC(C(=O)c3ccc(F)cc3)CC2)C(=O)c2cccc([N+](=O)[O-])c2)cc1`, 131 to 134 °C. For `C=CCCC1C=CCC2=C1C(=O)C1=C(CCCC1)C2=O` (stereo not drawn), the melting point is 47 to 48 °C. `CC(=O)C1CCC2C3CCC4CC(O)CCC4(C)C34OC4CC12C` (stereo not drawn) showed a melting point of 160 to 162 °C.

Regarding `O=C1c2ccccc2N(c2ccc(F)cc2)C2=NCCN12`, the melting point lay in the range of 278 to 280 °C. The value for `COC(=O)C(=C(C)C)N1C(=O)C(NC(=O)COc2ccccc2)C1SN1CCCCC1` (stereo not drawn) was 65 °C. Consider `CCc1ncnc(O)c1F`, for which the melting point was in the range of 112 to 114 °C.

Take `Nc1nc(NCCc2cccc(O)c2)nc2nc(-c3ccco3)nn12`: the melting point lay in the range of 190 to 193 °C. The value for `CCOC(=O)c1cccc(-c2coc3cc(O)c(O)cc3c2=O)c1` was 217 to 218 °C; that for `Cc1ccc2c(C(C)C(N)=O)ccc(C(C)C)cc1-2` (stereo not drawn) was 149 to 152 °C; that for `COc1ccc(C(=O)Nc2ccccc2)cc1NCc1cccc(Cl)c1` was 203 to 205 °C. Consider `CCC1C(c2ccc(OC(Cl)C(=O)O)cc2Cl)=CC(=O)CC1C` (stereo not drawn), for which the melting point came to 183 °C. The compound `CCOC(=O)c1ccc(OCC(O)COc2cccc3oc(C(=O)OCC)cc(=O)c23)cc1` (stereo not drawn) gave a melting point of 134 to 135 °C. The compound `NC(=O)CCC(C(=O)O)N1C(=O)c2cccc(NCc3ccco3)c2C1=O` (stereo not drawn) had a melting point of 114 to 116 °C. With `CCOC(=O)c1cn(Cc2ccccc2OC)c2sc(-c3ccc(N)cc3)c(CN(C)Cc3ccccc3)c2c1=O` the figure was 120 to 122 °C; with `Cc1ccccc1-c1ccc(Br)cc1C=O`, 71 to 73 °C. The value for `CN(C)C(=O)c1ccccc1Sc1c[nH]c2ccccc12` was 194 to 196 °C; that for `CCCOc1ccccc1-c1ccc([N+](=O)[O-])c(=O)[nH]1` was 198 to 200 °C; that for `NCC(c1ccc(F)cc1)C1CCCCC1O` (mixture of isomers) was 75 to 76 °C. With `CC1(C)CCC(C)(C)c2cc(SCc3ccc(C(=O)O)cc3)ccc21`, the melting point lay in the range of 169 to 170 °C.

Regarding `CCCN(CCC)C1Cc2cccc3[nH]c(=O)n(c23)C1` (stereo not drawn), the melting point was in the range of 190 to 192 °C. With `CCN(CC)CCOc1cc(C(=O)NC(=N)N)c(C)c2ccc(OC)cc12`, the melting point is 135 °C.

Compound `Cc1c(CN2CCc3[nH]c4ccccc4c3C2=O)ncn1C(c1ccccc1)(c1ccccc1)c1ccccc1` returned a melting point of 235 to 236 °C.

Compound `C=C(C)c1cc(S(=O)(=O)c2ccc(N)cc2)cc(N2CCCC2)n1` gave a melting point of 200 to 201 °C. In the case of `Cn1c(=O)[nH]c2cc(CC(=O)O)ccc21`, the melting point came to 220 °C. Regarding `CCCCCNc1cccc(C(=O)O)c1C(=O)O`, the melting point lay within 236 to 238 °C. With `CCCc1nc2c(N)nc3cc(OCCCCCCNS(C)(=O)=O)ccc3c2n1CCCCNS(C)(=O)=O` the figure was 138 to 140 °C. In the case of `O=CNC1=CCc2ccccc21`, the melting point fell in the range of 87.5 to 88.5 °C. Turning to `CCOC(=O)C1=CNc2ccnn2C1`, the melting point was in the range of 198 to 200 °C.

The compound `COc1ccc2c(Cc3c(Cl)cncc3Cl)nnc(NN)c2c1` yielded a melting point of 297 to 299 °C. `COC(=O)C(Br)c1nsc2ccc(-n3c(=O)cc(C(F)(F)F)n(C)c3=O)cc12` (stereo not drawn) showed a melting point of 84 to 87 °C. Regarding `CCOC(=O)c1cnc2cc(C)sc2c1O`, the melting point fell in the range of 240 to 245 °C. With `CNC(=O)c1ccc(N2CCN(Cc3cc4c(c(OC)c3)OC(C)C(=O)N4)CC2)c(Cl)c1` (stereo not drawn) the figure was 200 to 203 °C; with `CC(C)c1cccc(C(C)C)c1-n1nnn(C(C)C)c1=O`, 60 to 62 °C; with `CC(O)(C1=CCN(CCCC(=O)c2ccc(F)cc2)CC1)c1ccc(F)cc1` (stereo not drawn), 95 °C. The compound `OC1N=C(c2ccccc2F)c2cc(Cl)ccc2-c2ncncc21` (stereo not drawn) came in with a melting point of 186 to 188 °C. On to `Cn1ccc2c(-n3cc(C(=O)O)c4cccnc43)ncnc21`, for which the melting point was > 260 °C. Compound `COc1ccc(OC(=O)Cl)cc1C12CC3CC(CC(C3)C1)C2` gave a melting point of 87 to 89 °C. With `O=C(O)Cc1cccc(OCc2ccc3ccccc3n2)c1` the figure was 128 to 130 °C. `CCCCCCCCCCCCCC(=O)Nc1ccc(Cl)c(NC2=NN(c3c(Cl)cc(Cl)cc3Cl)C(=O)C2n2ccnc2)c1` (stereo not drawn) yielded a melting point of 172 to 174 °C.

Turning to `O=C(O)C1CCc2cccc3c(=O)[nH]c(=O)n1c23` (stereo not drawn), the melting point was > 300 °C. Turning to `COC(=O)c1nc(C(=O)c2ccc(N)c(OC)c2)n2ccccc12`, the melting point came to 63 °C.

`O=c1c(-c2cccc(C(F)(F)F)c2)ccc2ccccn12` came in with a melting point of 110 to 111 °C. With `Cc1ccc2c(c1C)OC(C(F)(F)F)C(C(=O)O)=C2` (stereo not drawn) the figure was 245 to 247 °C; with `O=C(c1ccc(Cl)nc1)N1Cc2cccn2Cc2ccccc21`, 165 to 167 °C; with `CCCCCCCCC1COC(c2ccc(O)cc2)OC1` (stereo not drawn), 96 to 97 °C.

Compound `CCOC1C(=O)NC(=O)N1CCCc1ccccc1` (stereo not drawn) displayed a melting point of 64 °C.

In turn, `CCCCc1nc2cc(C(=O)OC)ccc2[nH]1` gave a melting point of 108 to 110 °C. Compound `Cc1cc(C)cc(-c2ccc3c(c2)CC[C@H]2N(C)C(=O)CC[C@]32C)c1` had a melting point of 129 to 130 °C.

Compound `CN1C(N2CCCCC2)=C2N=c3cc(Cl)ccc3=C2Oc2ccccc21` registered a melting point of 244 to 245 °C. In turn, `Cn1cc(C2=C(c3cccc(NCCO)c3)C(=O)NC2=O)c2ccccc21` yielded a melting point of 170 to 171 °C.

Consider `CCOC1CC2CCC3C4CCC(C(C)=O)C4(C)CC(NC(=O)OCC(Cl)(Cl)Cl)C3C2(C)CC1OCC` (stereo not drawn), for which the melting point lay in the range of 68 to 71 °C. As to `C=CCNC(=O)[C@H]1N(C(=O)[C@@H](O)[C@H](Cc2ccccc2)NC(=O)c2cccc(O)c2C)CSC1(C)C`, the melting point lay in the range of 173 to 175 °C.

For the origin of these results see a melting point compilation (Tetko et al.; mined from patent text by program, amines drawn as free bases though some values may be those of a salt).
